Measurements: ChEMBL document CHEMBL1201862, “PubChem BioAssay data set” (2004)
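1) Cells in 96-well plates. 2) Compound, 48 h, 5 concentrations. 3) Linear interpolation between surrounding doses. 4) Unreached endpoint = highest concentration. The concentration for 50% growth inhibition is given as GI50.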 The source made the active and inactive calls. No stated cut-off is given here; in the data, active = GI50 up to about 1.1 µM and inactive = higher.

Tests used:
Experiment in all cases: inhibition of tumour cell growth, NCI panel, 48 h
786-0 = tested on: 786-0
CAKI-1 = tested on: CAKI-1
CCRF-CEM = tested on: CCRF-CEM
HCC 2998 = tested on: HCC 2998
HCT-116 = tested on: HCT-116
M14 = tested on: M14
MDA-N = tested on: MDA-N
MOLT-4 = tested on: MOLT-4
NCI-H226 = tested on: NCI-H226
NCI-H460 = tested on: NCI-H460
NCI-H522 = tested on: NCI-H522
PC-3 = tested on: PC-3
RPMI-8226 = tested on: RPMI-8226
SF-295 = tested on: SF-295
SK-MEL-28 = tested on: SK-MEL-28
SK-MEL-2 = tested on: SK-MEL-2
SK-OV-3 = tested on: SK-OV-3
UACC-62 = tested on: UACC-62
SNB-75 = tested on: SNB-75

Measured: GI50

Cc1c(C(=O)O)n2c(S)nnc2c2ccccc12
inactive: 786-0 > 100 µM | CAKI-1 > 100 µM | CCRF-CEM > 100 µM | HCC 2998 > 100 µM | HCT-116 > 100 µM | M14 > 100 µM | MDA-N > 100 µM | MOLT-4 > 100 µM | NCI-H226 > 100 µM | NCI-H460 > 100 µM | NCI-H522 > 100 µM | PC-3 > 100 µM | RPMI-8226 > 100 µM | SF-295 > 100 µM | SK-MEL-28 > 100 µM | SK-MEL-2 > 100 µM | SK-OV-3 > 100 µM | UACC-62 > 100 µM

Cc1nc2ccccc2c(=O)n1NC(=O)c1ccc(N)cc1
inactive: 786-0 > 100 µM | CCRF-CEM > 100 µM | HCC 2998 > 100 µM | HCT-116 > 100 µM | M14 > 100 µM | MDA-N > 100 µM | MOLT-4 > 100 µM | NCI-H226 > 100 µM | NCI-H460 > 100 µM | NCI-H522 > 100 µM | PC-3 > 100 µM | RPMI-8226 > 100 µM | SF-295 > 100 µM | SK-MEL-28 > 100 µM | SK-OV-3 > 100 µM | SNB-75 14.6 µM | UACC-62 > 100 µM

CC12Cc3cc4c(cc3C1(c1ccc([N+](=O)[O-])cc1)OCCO2)OCO4 (stereo not given)
inactive: 786-0 47.9 µM | CAKI-1 > 100 µM | CCRF-CEM > 100 µM | HCC 2998 > 100 µM | HCT-116 65.3 µM | M14 > 100 µM | MDA-N > 100 µM | MOLT-4 > 100 µM | NCI-H226 26.2 µM | NCI-H460 70.3 µM | NCI-H522 91 µM | PC-3 97.7 µM | RPMI-8226 > 100 µM | SF-295 25.2 µM | SK-MEL-28 > 100 µM | SK-MEL-2 32.2 µM | SK-OV-3 16.8 µM | UACC-62 36.8 µM

CCOC(=O)/C(=C\Nc1c(C)n(C)n(-c2ccccc2)c1=O)C(=O)c1ccccc1
inactive: 786-0 > 100 µM | CAKI-1 > 100 µM | CCRF-CEM > 100 µM | HCC 2998 > 100 µM | HCT-116 > 100 µM | M14 > 100 µM | MDA-N > 100 µM | MOLT-4 > 100 µM | NCI-H226 > 100 µM | NCI-H460 > 100 µM | NCI-H522 > 100 µM | PC-3 > 100 µM | RPMI-8226 > 100 µM | SF-295 > 100 µM | SK-MEL-28 > 100 µM | SK-MEL-2 > 100 µM | SK-OV-3 > 100 µM | UACC-62 > 100 µM

CC(=O)OCCC[C@@H]1C(=C(C)C)CCC2[C@@]1(C)CC[C@@]1(C)C[C@](C)(CCC=C(C)C)CC[C@]21C (stereo not given in full)
inactive: 786-0 > 100 µM | CAKI-1 > 100 µM | CCRF-CEM > 100 µM | HCC 2998 > 100 µM | HCT-116 > 100 µM | M14 > 100 µM | MDA-N > 100 µM | MOLT-4 > 100 µM | NCI-H226 > 100 µM | NCI-H460 > 100 µM | NCI-H522 > 100 µM | PC-3 18.5 µM | RPMI-8226 > 100 µM | SF-295 > 100 µM | SK-MEL-28 > 100 µM | SK-OV-3 > 100 µM | SNB-75 7.94 µM | UACC-62 > 100 µM

O=C1c2ccccc2C(C2c3ccccc3C(=O)c3cc(Br)ccc32)c2ccc(Br)cc21 (stereo not given)
inactive: 786-0 > 100 µM | CAKI-1 > 100 µM | HCC 2998 > 100 µM | HCT-116 59.2 µM | M14 > 100 µM | MDA-N > 100 µM | MOLT-4 61 µM | NCI-H226 > 100 µM | NCI-H522 > 100 µM | PC-3 > 100 µM | RPMI-8226 > 100 µM | SF-295 > 100 µM | SK-MEL-28 > 100 µM | SK-OV-3 > 100 µM | SNB-75 > 100 µM | UACC-62 > 100 µM

FC(F)(F)c1cccc(COCCN2CCN(Cc3cccc(C(F)(F)F)c3)CC2)c1
inactive: 786-0 15.3 µM | CAKI-1 17.5 µM | CCRF-CEM 14.1 µM | HCC 2998 17 µM | HCT-116 14.4 µM | M14 30.1 µM | MDA-N 15.9 µM | MOLT-4 7.91 µM | NCI-H226 17 µM | NCI-H460 16.3 µM | NCI-H522 13 µM | PC-3 9.33 µM | SF-295 19.7 µM | SK-MEL-28 17.8 µM | SK-OV-3 17.3 µM | SNB-75 13.5 µM | UACC-62 15.3 µM

CN(C)c1n/c(=N/Cc2ccncc2)ss1
inactive: 786-0 17.4 µM | CAKI-1 31.5 µM | CCRF-CEM 13.6 µM | HCC 2998 > 52.6 µM | HCT-116 20.5 µM | M14 16.8 µM | MDA-N 21.7 µM | MOLT-4 20.3 µM | NCI-H226 > 100 µM | NCI-H460 > 100 µM | NCI-H522 16.1 µM | PC-3 26.1 µM | RPMI-8226 21 µM | SF-295 > 90.8 µM | SK-MEL-28 36.8 µM | SK-OV-3 > 40 µM | SNB-75 18.4 µM | UACC-62 30.2 µM
